{"source": "ChEMBL document CHEMBL4257227", "about": "“Deubiquitinase inhibitors and methods for use of the same” (2016)", "key": {"A375/R": {"test_system": "A375/R", "assay": "Induction of apoptosis in human A375R cells assessed as induction of caspase-3 activation", "type": "functional, cell-based"}, "[1]": {"molecular_target": "T1, Ubiquitin carboxyl-terminal hydrolase 5 (Homo sapiens) (UniProt P45974)", "T1 sequence (whole entry)": "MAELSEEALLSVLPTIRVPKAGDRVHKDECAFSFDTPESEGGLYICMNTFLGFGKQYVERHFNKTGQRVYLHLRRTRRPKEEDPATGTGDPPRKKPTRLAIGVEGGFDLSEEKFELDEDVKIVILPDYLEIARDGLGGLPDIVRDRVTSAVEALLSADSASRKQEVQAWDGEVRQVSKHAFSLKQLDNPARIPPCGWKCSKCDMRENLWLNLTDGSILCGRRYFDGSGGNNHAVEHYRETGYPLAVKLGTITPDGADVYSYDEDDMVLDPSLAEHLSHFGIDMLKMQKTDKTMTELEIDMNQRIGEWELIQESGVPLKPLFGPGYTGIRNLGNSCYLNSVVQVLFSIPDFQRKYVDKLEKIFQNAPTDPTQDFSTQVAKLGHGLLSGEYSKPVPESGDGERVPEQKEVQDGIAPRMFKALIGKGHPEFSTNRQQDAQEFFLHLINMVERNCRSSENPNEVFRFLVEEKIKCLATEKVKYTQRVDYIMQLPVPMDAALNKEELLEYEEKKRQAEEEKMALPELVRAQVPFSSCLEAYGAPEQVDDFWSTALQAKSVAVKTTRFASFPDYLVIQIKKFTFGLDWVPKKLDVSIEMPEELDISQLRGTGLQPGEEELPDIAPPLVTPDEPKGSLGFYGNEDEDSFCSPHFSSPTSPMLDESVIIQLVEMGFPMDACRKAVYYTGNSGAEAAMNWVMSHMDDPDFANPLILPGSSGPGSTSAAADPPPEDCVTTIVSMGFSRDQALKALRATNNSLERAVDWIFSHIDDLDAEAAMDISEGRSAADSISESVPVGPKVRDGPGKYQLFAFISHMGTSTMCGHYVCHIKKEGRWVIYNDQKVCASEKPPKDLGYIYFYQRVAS", "assay": "Inhibition of USP5 in Vemurafenib sensitive human A375 cells"}, "MM1.S [2]": {"test_system": "MM1.S", "assay": "Antitumor activity against human MM1S cells xenografted in NOD/SCID/gamma-2 knockout mouse assessed as inhibition of tumor volume at 5 to 20 mg/kg, ip once per day for 11 days", "type": "functional, organism-based"}, "[3]": {"assay": "Plasma concentration in Balb/c mouse at 30 mg/kg, po after 0.5 hrs by LC-MS analysis", "type": "ADME, organism-based"}, "Mus musculus [4]": {"test_system": "Mus musculus", "assay": "Toxicity in human A375 cells xenografted NOD/SCID/gamma-2 knockout mouse assessed effect on body weight at 15 mg/kg, ip once per day for 8 days", "type": "functional, organism-based"}, "[5]": {"molecular_target": "T1, Ubiquitin carboxyl-terminal hydrolase 5 (Homo sapiens)", "assay": "Inhibition of USP5 in Vemurafenib […] human A375R cells assessed as reduction in ERK phosphorylation"}, "[6]": {"molecular_target": "Ubiquitin carboxyl-terminal hydrolase 9X (Homo sapiens) (UniProt Q93008)", "sequence (Q93008 whole entry)": "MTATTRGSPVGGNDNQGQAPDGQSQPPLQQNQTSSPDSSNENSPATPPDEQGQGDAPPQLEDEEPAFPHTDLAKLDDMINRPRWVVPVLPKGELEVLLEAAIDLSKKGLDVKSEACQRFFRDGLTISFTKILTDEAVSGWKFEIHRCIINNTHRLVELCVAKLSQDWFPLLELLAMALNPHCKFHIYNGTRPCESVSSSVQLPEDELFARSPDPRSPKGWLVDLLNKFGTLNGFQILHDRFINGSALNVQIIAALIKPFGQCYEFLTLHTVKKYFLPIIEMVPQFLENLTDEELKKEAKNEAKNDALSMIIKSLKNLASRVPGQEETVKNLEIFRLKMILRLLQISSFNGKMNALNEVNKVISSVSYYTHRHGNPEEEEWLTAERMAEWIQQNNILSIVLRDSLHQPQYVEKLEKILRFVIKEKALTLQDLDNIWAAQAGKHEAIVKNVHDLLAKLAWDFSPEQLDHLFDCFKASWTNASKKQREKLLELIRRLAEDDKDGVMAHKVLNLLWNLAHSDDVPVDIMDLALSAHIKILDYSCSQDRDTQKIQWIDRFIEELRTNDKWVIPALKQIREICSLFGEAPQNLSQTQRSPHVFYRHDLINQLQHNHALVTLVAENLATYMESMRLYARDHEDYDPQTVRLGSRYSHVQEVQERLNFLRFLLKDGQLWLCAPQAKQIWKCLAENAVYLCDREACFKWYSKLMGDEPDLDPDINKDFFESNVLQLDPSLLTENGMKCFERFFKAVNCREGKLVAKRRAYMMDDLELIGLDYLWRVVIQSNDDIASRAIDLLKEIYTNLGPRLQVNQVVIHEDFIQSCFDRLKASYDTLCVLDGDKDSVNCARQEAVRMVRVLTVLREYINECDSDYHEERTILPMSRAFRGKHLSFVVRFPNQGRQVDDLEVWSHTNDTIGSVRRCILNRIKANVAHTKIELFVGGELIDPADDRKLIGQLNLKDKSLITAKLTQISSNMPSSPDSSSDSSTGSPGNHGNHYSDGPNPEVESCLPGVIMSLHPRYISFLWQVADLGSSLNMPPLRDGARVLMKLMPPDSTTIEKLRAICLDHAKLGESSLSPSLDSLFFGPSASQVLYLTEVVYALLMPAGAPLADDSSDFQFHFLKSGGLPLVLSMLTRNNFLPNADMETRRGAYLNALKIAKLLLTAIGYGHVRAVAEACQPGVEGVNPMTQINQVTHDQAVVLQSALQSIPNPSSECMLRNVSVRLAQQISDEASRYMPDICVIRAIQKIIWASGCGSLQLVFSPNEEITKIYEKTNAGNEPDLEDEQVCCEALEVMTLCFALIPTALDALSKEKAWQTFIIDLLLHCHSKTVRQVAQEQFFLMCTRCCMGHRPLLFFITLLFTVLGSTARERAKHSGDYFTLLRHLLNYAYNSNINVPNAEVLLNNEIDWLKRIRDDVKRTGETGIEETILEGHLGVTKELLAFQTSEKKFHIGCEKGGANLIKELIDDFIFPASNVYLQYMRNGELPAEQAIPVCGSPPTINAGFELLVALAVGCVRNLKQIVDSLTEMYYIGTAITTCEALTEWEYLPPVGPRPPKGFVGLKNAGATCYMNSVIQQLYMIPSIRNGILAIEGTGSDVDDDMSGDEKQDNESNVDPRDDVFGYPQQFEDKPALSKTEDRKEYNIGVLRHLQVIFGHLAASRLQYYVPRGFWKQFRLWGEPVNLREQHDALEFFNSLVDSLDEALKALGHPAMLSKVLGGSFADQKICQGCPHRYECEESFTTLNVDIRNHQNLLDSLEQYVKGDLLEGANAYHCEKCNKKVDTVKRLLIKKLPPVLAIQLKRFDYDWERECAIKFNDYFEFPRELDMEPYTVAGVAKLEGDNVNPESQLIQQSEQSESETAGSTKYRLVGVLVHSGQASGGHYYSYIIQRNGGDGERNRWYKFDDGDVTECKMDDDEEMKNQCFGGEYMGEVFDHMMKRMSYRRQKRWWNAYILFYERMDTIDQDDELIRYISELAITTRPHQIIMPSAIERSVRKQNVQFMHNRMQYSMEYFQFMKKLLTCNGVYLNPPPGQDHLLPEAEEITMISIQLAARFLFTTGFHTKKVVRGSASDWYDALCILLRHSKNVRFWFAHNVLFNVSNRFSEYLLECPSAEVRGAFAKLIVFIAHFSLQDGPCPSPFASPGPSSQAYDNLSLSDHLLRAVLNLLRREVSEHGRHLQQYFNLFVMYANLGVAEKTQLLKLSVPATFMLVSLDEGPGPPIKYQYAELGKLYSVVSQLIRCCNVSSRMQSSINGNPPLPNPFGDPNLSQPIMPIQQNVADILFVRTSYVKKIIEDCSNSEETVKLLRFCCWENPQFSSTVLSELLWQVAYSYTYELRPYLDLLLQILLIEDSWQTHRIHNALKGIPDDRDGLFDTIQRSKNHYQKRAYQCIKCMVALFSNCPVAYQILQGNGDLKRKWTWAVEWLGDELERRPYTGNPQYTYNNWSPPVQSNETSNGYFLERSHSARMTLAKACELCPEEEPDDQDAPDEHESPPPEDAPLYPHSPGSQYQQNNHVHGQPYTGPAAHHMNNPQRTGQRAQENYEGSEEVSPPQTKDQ", "assay": "Inhibition of USP9x in Vemurafenib resistant human A375 cells"}, "A-375 [7]": {"test_system": "A-375", "assay": "Induction of p53 protein expression in Vemurafenib sensitive human A375 cells", "type": "functional, cell-based"}, "[8]": {"assay": "Plasma concentration in Balb/c mouse at 10 mg/kg, iv after 7 hrs by LC-MS analysis", "type": "ADME, organism-based"}, "[9]": {"molecular_target": "Ubiquitin carboxyl-terminal hydrolase 9X (Homo sapiens) (UniProt Q93008)", "assay": "Inhibition of Usp9x in primary tumor cells from patient with plasma cell leukemia assessed as reduction in MCL-1 protein levels at 5 uM incubated for 30 to 240 mins by SDS-PAGE and immunoblotting", "type": "cell-based"}, "NCI-H929": {"test_system": "NCI-H929", "assay": "Induction of apoptosis in human NCI-H929 cells at 0.3125 to 5 uM incubated for 24 hrs by annexin V staining based flow cytometry", "type": "functional, cell-based"}, "MM1.S [10]": {"test_system": "MM1.S", "assay": "Antitumor activity against human MM1S cells xenografted in NOD/SCID/gamma-2 knockout mouse assessed as inhibition of tumor growth at 5 to 20 mg/kg, ip once per day for 14 days", "type": "functional, organism-based"}, "La Crosse virus": {"test_system": "La Crosse virus", "assay": "Antiviral activity against La Crosse virus virus infected in human Be2-c cells assessed as reduction in viral plaque forming units", "type": "functional, organism-based"}, "[11]": {"molecular_target": "T1, Ubiquitin carboxyl-terminal hydrolase 5 (Homo sapiens)", "assay": "Inhibition of USP5 in Vemurafenib […] human A375R cells assessed as reduction in STAT3 phosphorylation"}, "[12]": {"molecular_target": "T1, Ubiquitin carboxyl-terminal hydrolase 5 (Homo sapiens)", "assay": "Inhibition of USP5 in Vemurafenib resistant human A375 cells assessed as reduction in ERK phosphorylation"}, "[13]": {"molecular_target": "Ubiquitin carboxyl-terminal hydrolase 9X (Homo sapiens) (UniProt Q93008)", "assay": "Inhibition of USP9x in Vemurafenib resistant human A375 cells assessed as STAT3 phosphorylation"}, "[14]": {"assay": "Plasma concentration in Balb/c mouse at 10 mg/kg, iv after 0.5 hrs by LC-MS analysis", "type": "ADME, organism-based"}, "[15]": {"assay": "AUClast in Balb/c mouse at 10 mg/kg, iv by LC-MS analysis", "type": "ADME, organism-based", "set-up": "dose 10 mg/kg, route intravenous, time 0 - last", "conditions": "in vivo"}, "Murine norovirus": {"test_system": "Murine norovirus", "assay": "Antiviral activity against Murine norovirus infected in mouse RAW264.7 cells assessed as reduction in viral plaque forming units", "type": "functional, organism-based"}, "[16]": {"molecular_target": "T1, Ubiquitin carboxyl-terminal hydrolase 5 (Homo sapiens)", "assay": "Inhibition of USP5 in Vemurafenib resistant human A375 cells"}, "[17]": {"assay": "Plasma concentration in Balb/c mouse at 30 mg/kg, po after 7 hrs by LC-MS analysis", "type": "ADME, organism-based"}, "A-375 [18]": {"test_system": "A-375", "assay": "Antitumor activity against human A375 cells xenografted in NOD/SCID/gamma-2 knockout mouse assessed as inhibition of tumor growth at 7.5 mg/kg, ip once per day for 8 days", "type": "functional, organism-based"}, "Mus musculus [19]": {"test_system": "Mus musculus", "assay": "Inhibition of Usp9x in human MM1S cells xenografted in NOD/SCID/gamma-2 knockout mouse assessed as reduction in Mcl-1 protein levels at 15 mg/kg, ip once per day for 14 days", "type": "functional, organism-based"}, "MM1.S [20]": {"test_system": "MM1.S", "assay": "Antitumor activity against human MM1S cells xenografted in NOD/SCID/gamma-2 knockout mouse assessed as inhibition of tumor growth at 2.5 to 10 mg/kg, ip once per day for 14 days", "type": "functional, organism-based"}}, "note": "The source made the active and inactive calls. No cut-off for these calls is given here.", "data": [{"smiles": "CCCC(NC(=O)/C(C#N)=C/c1nc(Cl)ccc1Cl)c1ccc(OCCN2CCOCC2)cc1", "note": "(centres undefined)", "values": [{"measurement": "Activity", "setting": "A375/R", "result": "Active"}, {"measurement": "inhibition", "setting": "[1]", "result": "Active"}, {"measurement": "Activity", "setting": "MM1.S [2]", "result": "Active"}, {"measurement": "concentration at 0.5 h", "setting": "[3]", "result": "60.8 to 78.7", "unit": "ng/mL"}, {"measurement": "Activity", "setting": "Mus musculus [4]", "result": "Not toxic"}, {"measurement": "inhibition", "setting": "[5]", "result": "Active"}, {"measurement": "inhibition", "setting": "[6]", "result": "Active"}, {"measurement": "Activity", "setting": "A-375 [7]", "result": "inactive"}, {"measurement": "concentration at 7 h", "setting": "[8]", "result": "38.6 to 208", "unit": "ng/mL"}, {"measurement": "inhibition", "setting": "[9]", "result": "Active"}, {"measurement": "Activity", "setting": "NCI-H929", "result": "Active"}, {"measurement": "TGI", "setting": "MM1.S [10]", "result": "Active"}, {"measurement": "Activity", "setting": "La Crosse virus", "result": "Active"}, {"measurement": "inhibition", "setting": "[11]", "result": "Active"}, {"measurement": "inhibition", "setting": "[12]", "result": "Active"}, {"measurement": "inhibition", "setting": "[13]", "result": "Active"}, {"measurement": "concentration at 0.5 h", "setting": "[14]", "result": "1220 to 1880", "unit": "ng/mL"}, {"measurement": "AUC(0-t)", "setting": "[15]", "result": "3570 to 3730", "unit": "ng·h/mL"}, {"measurement": "Activity", "setting": "Murine norovirus", "result": "Active"}, {"measurement": "inhibition", "setting": "[16]", "result": "Active"}, {"measurement": "concentration at 7 h", "setting": "[17]", "result": "16.1 to 37.6", "unit": "ng/mL"}, {"measurement": "TGI", "setting": "A-375 [18]", "result": "Active"}, {"measurement": "inhibition", "setting": "Mus musculus [19]", "result": "Active"}, {"measurement": "TGI", "setting": "MM1.S [20]", "result": "Active"}]}]}
